# Paper PMC10501326, “A Phase I Study of the Pan-Notch Inhibitor CB-103 for Patients with Advanced Adenoid Cystic Carcinoma and Other Tumors” (Cancer Research Communications, 2023)
# Columns and labels:
# [1] = advanced ACC population; cited from earlier work
# [2] = tested on: NOTCH-mutated advanced ACC; conditions: 77 patients, cited from earlier work
# [3] = tested on: myeloma cell lines; design: method as in PMID 21159606; conditions: cited from earlier work
# [4] = Phase I/II safety and tolerability: DLTs and treatment-related adverse events (CTCAE v4.03); format: in vivo; conditions: added to CB-103; one patient
# Source text: The study was an open-label, nonrandomized, phase I/II dose-escalation study with planned expansion cohorts. […] Part B was a potential expansion phase at the MTD/RP2D to determine preliminary evidence of antitumor activity and to confirm safety among patients stratified by preselected cancer indications.
# Part A was based on a two-parameter Bayesian logistic regression model (BLRM) to investigate safety and tolerability of sequentially enrolled dose cohorts of 3–6 patients. The first 2 participants of each cohort were enrolled in a staggered approach with at least 1 day apart between first dosing.
# (§1) 12-lead electrocardiograms and Holter safety monitoring with periodic cardiac imaging was employed. Efficacy assessments used RECIST v1.1 applied to CT/MRI scans performed at screening and every 8 weeks; or evaluated complete remission with complete hematologic recovery by National Comprehensive Cancer Network guideline criteria for T-ALL/T-LBL. Adherence to study drug administration was evaluated using both patient diaries and capsule counts.
# Secondary endpoints included assessment of clinical benefit rate [CBR; defined as achieving complete and/or partial response and/or stable disease (SD) at prespecified benchmarks], duration of response, progression-free survival (PFS) and overall survival (OS), and plasma pharmacokinetics.
# The SS was the primary population for all safety and efficacy analyses, except for determination of dose-DLT relationship.
# Under this model, and accounting for dropouts and some additional patients enrolled to each cohort, approximately 55 patients were anticipated to enroll in dose escalation and approximately 45 patients in the confirmatory phase. […] All statistical analyses were analyzed using SAS v9.4 software.
# [5] = tested on: advanced solid tumors, adenoid cystic carcinoma (ACC); assay: Antitumor efficacy and survival (RECIST v1.1 response, CBR, PFS, OS); format: in vivo, human
# Source text: The study enrolled adults with histologically confirmed, locally advanced and/or metastatic solid tumors who had progressed on at least one line of prior systemic therapy (except for ACC) and relapsed/refractory T-ALL/LBL for whom no standard therapy was available. In dose escalation, participants with solid tumors with known or frequent Notch pathway–activating mutations were eligible (breast cancer, gastrointestinal tumors, hepatocellular carcinoma, osteosarcoma, malignant glomus tumor, and ACC), while the confirmatory cohort planned to enroll participants with selected tumor types (including T-ALL/LBL) and confirmed Notch pathway activation. Key eligibility criteria included patients ≥18 years of age with evaluable disease, Eastern Cooperative Oncology Group (ECOG) performance status 0–1, able to swallow capsules, and adequate organ function. Participants were excluded if they had clinically significant cardiac disease or thromboembolic events within the preceding 6 months, and drugs prolonging the QTc were avoided. A complete list of eligibility criteria is outlined in the Supplementary Materials and Methods.
# as §1, with “Safety was assessed via monitoring of DLTs during the first treatment cycle, and of AEs, physical exam, and clinical lab results (hematology, coagulation, blood chemistry, urinalysis, and cardiac markers) throughout the study (Supplementary Table S1). 12-lead” for “12-lead”
# The primary endpoint for dose escalation was the number of patients experiencing DLT during the first 28-day cycle of CB-103 and for the confirmatory phase, the incidence rate, severity, and relationship of AEs to CB-103. Secondary endpoints included assessment of clinical benefit rate [CBR; defined as achieving complete and/or partial response and/or stable disease (SD) at prespecified benchmarks], duration of response, progression-free survival (PFS) and overall survival (OS), and plasma pharmacokinetics.
# The objective of the BLRM design ([10]) was to determine the MTD defined as the highest dose with less than 25% risk of the true DLT rate being above 33%. The MTD was considered reached if one of the following criteria was fulfilled: (i) if the posterior probability of the true DLT rate in the target interval (16%–33%) of the MTD was >50%, and (ii) at least 6 patients were treated at the MTD. Under this model, and accounting for dropouts and some additional patients enrolled to each cohort, approximately 55 patients were anticipated to enroll in dose escalation and approximately 45 patients in the confirmatory phase. Data were reported using 95% confidence intervals (CI) and survival endpoints (PFS, OS) are reported from the time of first treatment to the first of progression or death summarized by Kaplan–Meier estimates. All statistical analyses were analyzed using SAS v9.4 software.
compound,measurement,setting,value
CNC(=O)c1ccccc1Sc1ccc2c(/C=C/c3ccccn3)n[nH]c2c1 [axitinib],Discontinuation rates for toxicity,[1],≥ 20%
CN1C(=O)[C@@H](NC(=O)[C@H](CCC(F)(F)F)[C@H](CCC(F)(F)F)C(N)=O)N=C(c2ccccc2)c2ccccc21 [AL101],Disease control rate,[2]; benchmark not reported,69%
same,Partial response rate,[2],12%
same,Patients exhibiting SD,[2],57%
CN(C)CC[C@H](CSc1ccccc1)Nc1ccc(S(=O)(=O)NC(=O)c2ccc(N3CCN(Cc4ccccc4-c4ccc(Cl)cc4)CC3)cc2)cc1[N+](=O)[O-] [ABT-737],Effect of combining with a GSI,[3],synergism
"CC1(C)CCC(CN2CCN(c3ccc(C(=O)NS(=O)(=O)c4ccc(NCC5CCOCC5)c([N+](=O)[O-])c4)c(Oc4cnc5[nH]ccc5c4)c3)CC2)=C(c2ccc(Cl)cc2)C1 [Venetoclax, reference compound]",Tolerance in combination,[4],good tolerance
same,Effect of off-label addition to CB-103 after first progression,[5]; 1 patient with NOTCH1-activating metastatic ACC and tumor BCL2 overexpression,additional tumor growth stabilization
same,"Further disease stabilization, additional time","[5]; off-label, added to CB-103 upon signs of disease progression, one patient, NOTCH1-activated metastatic ACC, BCL2 overexpression",3.5 months
